Data published in ChEMBL document CHEMBL5154681, “Small Amphiphilic Peptides: Activity Against a Broad Range of Drug-Resistant Bacteria and Structural Insight into Membranolytic Properties” (J Med Chem, 2022).
In brackets after ≈: the same amount, converted by molar mass. Activity calls are given as the source filed them. The rule behind the calls is not given here. Square brackets hold non-standard residues; d marks the D form. Peptide text beside a SMILES is read from it. Dip = N[C@H](C(=O)O)C(c1ccccc1)c1ccccc1; 2Nal = N[C@@H](Cc1ccc2ccccc2c1)C(=O)O

Experiments:
Bacillus cereus = assay: Antibacterial activity against Bacillus cereus ATCC 13061 incubated for 24 hrs by microtiter plate method; assay type: functional
Acinetobacter baumannii = assay: Antibacterial activity against ciprofloxacin resistance Acinetobacter baumannii ATCC BAA1605 incubated for 24 hrs by microtiter plate method; assay type: functional
Escherichia coli [1] = assay: Antibacterial activity against Escherichia coli ATCC 25922 incubated for 24 hrs; assay type: functional
Staphylococcus aureus [2] = assay: Antibacterial activity against methicillin resistant Staphylococcus aureus ATCC BAA-1556 after 24 hrs in presence of 6 mM of NH4Cl by microtiter plate method; assay type: functional
Klebsiella pneumoniae = assay: Antibacterial activity against Klebsiella pneumoniae ATCC 13883 […] incubated for 24 hrs by microtiter plate method; assay type: functional
Bacillus subtilis = assay: Antibacterial activity against Bacillus subtilis ATCC 6633 incubated for 24 hrs by microtiter plate method; assay type: functional
Staphylococcus aureus [3] = assay: Antibacterial activity against methicillin resistant Staphylococcus aureus ATCC BAA-1556 after 24 hrs in presence of fetal bovine serum by microtiter plate method; assay type: functional
Enterococcus faecalis [4] = assay: Antibacterial activity against vancomycin-resistant Enterococcus faecalis ATCC 51575 incubated for 24 hrs by microtiter plate method; assay type: functional
Cell membrane [5] = assay: Membrano-lytic effect in cytoplasmic membrane of methicillin resistant Staphylococcus aureus ATCC BAA-1556 assessed as disruption by measuring propidium iodide fluorescence incubated for 1 hr by FACscan flow cytometer analysis; conditions: DDE = dose-dependent effect
[6] = Hemolytic activity in human RBC assessed as hemolysis incubated for 2 hrs by spectrophotometer analysis; assay type: toxicity, cell-based, Erythrocyte; conditions: human red blood cells (erythrocytes)
Escherichia coli [7] = assay: Antibacterial activity against Escherichia coli ATCC BAA-2452 assessed as loss of membrane fluid at 4 times of MIC incubated for 30 mins by FE-SEM analysis; assay type: functional, organism-based
Pseudomonas aeruginosa = assay: Antibacterial activity against imipenem resistant Pseudomonas aeruginosa ATCC BAA-1744 incubated for 24 hrs by microtiter plate method; assay type: functional
Lipid bilayer [8] = assay: Membrano-lytic effect in mammalian membrane mimic DOPC/cholesterol (10:1) large unilamellar vesicles assessed as calcein leakage measured at 50 microg/ml measured upto 100 mins for every 10 mins by multimode microplate reader assay; assay type: cell membranes; conditions: dose 50.0 µg/ml
Escherichia coli [9] = assay: Bactericidal activity against Escherichia coli ATCC BAA-2452 assessed as reduction of bacterial growth at 4 times MIC by counting formed colonies; assay type: functional, organism-based; conditions: time <= 4.0 hrs, TDE = time-dependent effect
Enterococcus faecalis [10] = assay: Antibacterial activity against Enterococcus faecalis ATCC 29212 incubated for 24 hrs by microtiter plate method; assay type: functional
Cell membrane [11] = assay: Membrano-lytic effect in cytoplasmic membrane of Escherichia coli ATCC BAA-2452 assessed as disruption by measuring propidium iodide fluorescence at 4 times MIC incubated for 1 hr by FACscan flow cytometer analysis
Staphylococcus aureus [12] = assay: Bactericidal activity against methicillin resistant Staphylococcus aureus ATCC BAA-1556 assessed as reduction of bacterial growth at 4 times MIC by counting formed colonies; assay type: functional, organism-based; conditions: time <= 4.0 hrs, TDE = time-dependent effect
Escherichia coli [13] = assay: Antibacterial activity against Escherichia coli ATCC 25922 after 24 hrs in presence of 150 mM NaCl by microtiter plate method; assay type: functional
[14] = Cytotoxicity against HEK293 assessed as cell viability at 50 ug/ml incubated for 24 hrs by microplate spectrophotometer analysis method relative to control; assay type: toxicity, cell-based; conditions: human, HEK293 cells, at 50 µg/mL, read-out: Activity
Escherichia coli [15] = assay: Antibacterial activity against Escherichia coli ATCC 25922 after 24 hrs in presence of fetal bovine serum by microtiter plate method; assay type: functional
Escherichia coli [16] = assay: Antibacterial activity against Escherichia coli ATCC BAA-2452 assessed as membrane atrophy at 4 times of MIC incubated for 30 mins by FE-SEM analysis; assay type: functional, organism-based
[17] = Proteolytic stability in human plasma at 100 uM incubated for 30 mins by Q-TOF LC/MS analysis relative to control; assay type: ADME, cell-free; conditions: read-out: Stability
Escherichia coli [18] = assay: Antibacterial activity against Escherichia coli ATCC 25922 assessed as reduction in microbial growth after 24 hrs in presence of 6 mM of NH4Cl at by microtiter plate method; assay type: functional
[19] = Proteolytic stability in human plasma at 100 uM incubated for 24 hrs by Q-TOF LC/MS analysis relative to control; assay type: ADME, cell-free; conditions: read-out: Stability
[20] = Cytotoxicity against human MRC5 assessed as cell viability at 50 ug/ml incubated for 24 hrs by microplate spectrophotometer analysis method relative to control; assay type: toxicity, cell-based; conditions: MRC5 cells, at 50 µg/mL, read-out: Activity
Cell membrane [21] = assay: Membrano-lytic effect in cytoplasmic membrane of Escherichia coli ATCC BAA-2452 assessed as disruption by measuring propidium iodide fluorescence at MIC incubated for 1 hr by FACscan flow cytometer analysis
Staphylococcus aureus [22] = assay: Antibacterial activity against methicillin resistant Staphylococcus aureus ATCC BAA-1556 incubated for 24 hrs; assay type: functional
Staphylococcus aureus [23] = assay: Bactericidal activity against methicillin resistant Staphylococcus aureus ATCC BAA-1556 assessed as time required for complete reduction of bacterial growth at MIC by counting formed colonies; assay type: functional
Lipid bilayer [24] = assay: Induction of membrane disruption in bacterial inner membrane mimic DOPC/DOPG (7:3) large unilamellar vesicles assessed as decrease in particle size of liposome at 1:1 compound to lipid ratio measured after 90 mins by dynamic light scattering analysis; assay type: cell membranes
Staphylococcus aureus [25] = assay: Antibacterial activity against methicillin-resistant Staphylococcus aureus ATCC BAA-1556 assessed as membrane atrophy at 4 times of MIC incubated for 30 mins by FE-SEM analysis; assay type: functional, organism-based
Staphylococcus aureus [26] = assay: Antibacterial activity against methicillin resistant Staphylococcus aureus ATCC BAA-1556 after 24 hrs in presence of 1 mM of by microtiter plate method; assay type: functional
Staphylococcus aureus [27] = assay: Antibacterial activity against methicillin-resistant Staphylococcus aureus ATCC BAA-1556 assessed as loss of membrane fluid at 4 times of MIC incubated for 30 mins by FE-SEM analysis; assay type: functional, organism-based
Escherichia coli [28] = assay: Antibacterial activity against Escherichia coli ATCC 25922 after 24 hrs in presence of 2 mM CaCl2 at by microtiter plate method; assay type: functional
HepaRG = assay: Cytotoxicity against human HPRGC10 assessed as cell viability at 150 ug/ml incubated for 24 hrs by microplate spectrophotometer analysis method relative to control; assay type: functional; conditions: read-out: Activity
Streptococcus pneumoniae = assay: Antibacterial activity against […] ATCC 49619 incubated for 24 hrs by microtiter plate method; assay type: functional
Staphylococcus aureus [29] = assay: Bactericidal activity against methicillin resistant Staphylococcus aureus ATCC BAA-1556 assessed as time required for complete reduction of bacterial growth at 4 times MIC by counting formed colonies; assay type: functional
Escherichia coli [30] = assay: Bactericidal activity against Escherichia coli ATCC BAA-2452 assessed as reduction of bacterial growth at MIC by counting formed colonies; assay type: functional, organism-based; conditions: time <= 4.0 hrs, TDE = time-dependent effect
[31] = Cytotoxicity against HEK293 assessed as cell viability at 150 ug/ml incubated for 24 hrs by microplate spectrophotometer analysis method relative to control; assay type: toxicity, cell-based; conditions: human, HEK293 cells, at 150 µg/mL, read-out: Activity
Enterococcus faecium = assay: Antibacterial activity against vancomycin-resistant Enterococcus faecium ATCC 700221 incubated for 24 hrs by microtiter plate method; assay type: functional
Escherichia coli [32] = assay: Antibacterial activity against Escherichia coli NDM-1-resistant ATCC BAA-2452 incubated for 24 hrs by microtiter plate method; assay type: functional

SMILES	MIC (Bacillus cereus) [µg/mL]	MIC (Acinetobacter baumannii) [µg/mL]	MBC (Escherichia coli [1]) [µg/mL]	MIC (Staphylococcus aureus [2]) [µg/mL]	MIC (Klebsiella pneumoniae) [µg/mL]	MIC (Bacillus subtilis) [µg/mL]	MIC (Staphylococcus aureus [3]) [µg/mL]	MIC (Enterococcus faecalis [4]) [µg/mL]	Activity (Cell membrane [5])	HC50 at 2 h [6] [µg/mL]	Activity (Escherichia coli [7])	MIC (Pseudomonas aeruginosa) [µg/mL]	Activity (Lipid bilayer [8]) [%]	Activity (Escherichia coli [9])	MIC (Enterococcus faecalis [10]) [µg/mL]	Activity (Cell membrane [11]) [%]	Activity (Staphylococcus aureus [12])	MIC (Escherichia coli [13]) [µg/mL]	viability at 24 h, 50 ug/ml [14] [%]	MIC (Escherichia coli [15]) [µg/mL]	other results
N=C(N)NCCC[C@@H]1NC(=O)[C@H](CCCNC(=N)N)NC(=O)[C@H](CCCNC(=N)N)NC(=O)[C@H](C(c2ccccc2)c2ccccc2)NC(=O)[C@H](C(c2ccccc2)c2ccccc2)NC(=O)[C@H](C(c2ccccc2)c2ccccc2)NC(=O)[C@H](CCCNC(=N)N)NC1=O (cyclo(RRRR[Dip][Dip][Dip]))	3.1 (≈ 2.39 µM)	12.5 (≈ 9.66 µM)	25 (≈ 19.3 µM)	3.1	50 (≈ 38.6 µM)	1.5 (≈ 1.16 µM)	6.2	6.2 (≈ 4.79 µM)	Dde	70	Active	12.5 (≈ 9.66 µM)	18	Tde	3.1 (≈ 2.39 µM)	78	Tde	12.5	80	50	Activity (Escherichia coli [16]): Active; remaining at 0.5 h, 100 µM [17]: 86%; MIC (Escherichia coli [18]): 12.5 µg/mL; remaining at 24 h, 100 µM [19]: 65%; viability at 24 h, 50 ug/ml [20]: 93%; Activity (Cell membrane [21]): 50%; MBC (Staphylococcus aureus [22]): 6.2 µg/mL (≈ 4.79 µM); Activity (Staphylococcus aureus [23]): Active; Activity (Lipid bilayer [24]): Active; Activity (Staphylococcus aureus [25]): Active; MIC (Staphylococcus aureus [26]): 6.2 µg/mL; Activity (Staphylococcus aureus [27]): Active; MIC (Escherichia coli [28]): 12.5 µg/mL; viability at 150 µg/mL (HepaRG): 61%; MIC (Streptococcus pneumoniae): 25 µg/mL (≈ 19.3 µM); Activity (Staphylococcus aureus [29]): Active; Activity (Escherichia coli [30]): Tde; viability at 24 h, 150 ug/ml [31]: 58%; MIC (Enterococcus faecium): 3.1 µg/mL (≈ 2.39 µM); MIC (Escherichia coli [32]): 12.5 µg/mL (≈ 9.66 µM)
N=C(N)NCCC[C@@H]1NC(=O)[C@H](CCCNC(=N)N)NC(=O)[C@H](CCCNC(=N)N)NC(=O)[C@H](Cc2ccc3ccccc3c2)NC(=O)[C@H](Cc2ccc3ccccc3c2)NC(=O)[C@H](Cc2ccc3ccccc3c2)NC(=O)[C@H](CCCNC(=N)N)NC1=O (cyclo(RRRR[2Nal][2Nal][2Nal]))	3.1 (≈ 2.55 µM)	12.5 (≈ 10.3 µM)	100 (≈ 82.2 µM)	3.1	50 (≈ 41.1 µM)	1.5 (≈ 1.23 µM)	6.2	3.1 (≈ 2.55 µM)	Dde	80	Active	12.5 (≈ 10.3 µM)	14	Tde	3.1 (≈ 2.55 µM)	88	Tde	25	80	> 50	Activity (Escherichia coli [16]): Active; remaining at 0.5 h, 100 µM [17]: 82%; MIC (Escherichia coli [18]): 25 µg/mL; remaining at 24 h, 100 µM [19]: 60%; viability at 24 h, 50 ug/ml [20]: 93%; Activity (Cell membrane [21]): 50%; MBC (Staphylococcus aureus [22]): 6.2 µg/mL (≈ 5.1 µM); Activity (Staphylococcus aureus [23]): Active; Activity (Lipid bilayer [24]): Active; Activity (Staphylococcus aureus [25]): Active; MIC (Staphylococcus aureus [26]): 3.1 µg/mL; Activity (Staphylococcus aureus [27]): Active; MIC (Escherichia coli [28]): 25 µg/mL; viability at 150 µg/mL (HepaRG): 61%; MIC (Streptococcus pneumoniae): 25 µg/mL (≈ 20.6 µM); Activity (Staphylococcus aureus [29]): Active; Activity (Escherichia coli [30]): Tde; viability at 24 h, 150 ug/ml [31]: 58%; MIC (Enterococcus faecium): 3.1 µg/mL (≈ 2.55 µM); MIC (Escherichia coli [32]): 12.5 µg/mL (≈ 10.3 µM)
